Data reported in ChEMBL document CHEMBL3779870, “Differential metabolism of 3FDT and docetaxel in RLMs, rats, and HLMs” (Eur J Med Chem, 2016).

How the values were obtained:
Format in all cases: ADME, organism-based
Details in all cases: in vivo
Plasma = assay: Drug level in Sprague-Dawley rat plasma treated with 3FDT at 40 mg/kg, iv administered as single dose after 4 to 24 hrs by HPLC-TIC chromatography
[1] = Drug level in Sprague-Dawley rat urine treated with 3FDT at 40 mg/kg, iv administered as single dose after 24 hrs by HPLC-TIC chromatography
[2] = Drug level in Sprague-Dawley rat feces treated with 3FDT at 40 mg/kg, iv administered as single dose after 24 hrs by HPLC-TIC chromatography

Measured: Drug metabolism

CC(=O)O[C@@]12CO[C@@H]1C[C@@H](O)[C@@]1(C)C(=O)[C@H](O)C3=C(C)[C@@H](OC(=O)[C@H](O)[C@@H](NC(=O)OC(C)(C)C(F)(F)F)c4ccccc4)C[C@@](O)([C@@H](OC(=O)c4ccccc4)C12)C3(C)C (stereo partly drawn)
metabolite_detected: all assays above
